# US20090042958A1, “Composition and method for treating immune-mediated skin disorders” (Geneblue Corporation, priority 2006, published 2009)
# “And” between values parts separate entries of the source, which are not always exact repeats. Equal entries are not always repeated.
# Legend:
# Type in all cases: cell-based, human
# PTGER3 = assay: Micro array gene expression analysis, PTGER3; details: keratinocytes, UVB irradiated; treated/untreated (Cy5/Cy3)
# Protocol: (§1) Stock solutions of test materials are listed below: • 1. UTL-5d stock: 1.7 mg/ml UTL-5d in a vehicle of 50:50 EtOH:PEG 600 v/v • 2. UTR-1 stock: 3.5 mg/ml UTR-1 in a vehicle of 50:50 EtOH:PEG 600 v/v • 3. Vehicle stock: 50:50 EtOH:PEG 600
# (§2) Human epidermal keratinocytes were seeded into 6-well plates and grown at 37±2° C. and 5±1% CO2 using serum free Epilife media supplemented as recommended by the manufacturer. Upon reaching confluency, the media were removed and the cells were treated overnight with Epilife media containing 1% v/v each of the stock solutions above (Vehicle stock and UTR-1 stock). Final concentration was 35 μg/ml for UTR-1. Two wells in the 6-well plate were prepared for each treatment. After applying the test material the cells were incubated for 24 hours at 37±2° C. and 5±1% CO2.
# (§3) At the end of the incubation period the culture media was removed via aspiration and replaced with phosphate buffered saline. […]
# (§4) The cells were washed once with PBS and then a trypsin/EDTA solution was added to release the cells, followed by the addition of trypsin neutralizing solution. […] In general, (1) the fluorescence intensity of the gene marker should be greater than the background intensity, and (2) the ratio of Cy5/Cy3 (treated/untreated) fluorescence intensity needs to be greater than 1.3 or less than 0.66 to indicate a change of ±30% in gene expression.
# PTGER2 = assay: Micro array gene expression analysis, PTGER2; details: keratinocytes, UVB irradiated; treated/untreated (Cy5/Cy3)
# Protocol: as §1, §2, §3, §4
# PTGER1 = assay: Micro array gene expression analysis, PTGER1; details: keratinocytes, UVB irradiated; treated/untreated (Cy5/Cy3)
# Protocol: as §1, §2, §3, §4
# EFA6R = assay: Micro array gene expression analysis, EFA6R; details: keratinocytes, UVB irradiated; treated/untreated (Cy5/Cy3)
# Protocol: as §1, §2, §3, §4
# PTGIR = assay: Micro array gene expression analysis, PTGIR; details: keratinocytes, UVB irradiated; treated/untreated (Cy5/Cy3)
# Protocol: as §1, §2, §3, §4
# APOBEC1 = assay: Micro array gene expression analysis, APOBEC1; details: keratinocytes, UVB irradiated; treated/untreated (Cy5/Cy3)
# Protocol: as §1, §2, §3, §4
# TNFRSF6B = assay: Micro array gene expression analysis, TNFRSF6B; details: keratinocytes, UVB irradiated; treated/untreated (Cy5/Cy3)
# Protocol: as §1, §2, §3, §4
# TNFSF13 = assay: Micro array gene expression analysis, TNFSF13; details: keratinocytes, UVB irradiated; treated/untreated (Cy5/Cy3)
# Protocol: as §1, §2, §3, §4
# MAP3K2 = assay: Micro array gene expression analysis, MAP3K2; details: keratinocytes, UVB irradiated; treated/untreated (Cy5/Cy3)
# Protocol: as §1, §2, §3, §4
# CDCP1 = assay: Micro array gene expression analysis, CDCP1; details: keratinocytes, UVB irradiated; treated/untreated (Cy5/Cy3)
# Protocol: as §1, §2, §3, §4
# EPHB4 = assay: Micro array gene expression analysis, EPHB4; details: keratinocytes, UVB irradiated; treated/untreated (Cy5/Cy3)
# Protocol: as §1, §2, §3, §4
# TUCAN = assay: Micro array gene expression analysis, TUCAN; details: keratinocytes, UVB irradiated; treated/untreated (Cy5/Cy3)
# Protocol: as §1, §2, §3, §4
# ITGB6 = assay: Micro array gene expression analysis, ITGB6; details: keratinocytes, UVB irradiated; treated/untreated (Cy5/Cy3)
# Protocol: as §1, §2, §3, §4
# DEFA6 = assay: Micro array gene expression analysis, DEFA6; details: keratinocytes, UVB irradiated; treated/untreated (Cy5/Cy3)
# Protocol: as §1, §2, §3, §4
# JAK3 = assay: Micro array gene expression analysis, JAK3; details: keratinocytes, UVB irradiated; treated/untreated (Cy5/Cy3)
# Protocol: as §1, §2, §3, §4
# PTGFR = assay: Micro array gene expression analysis, PTGFR; details: keratinocytes, UVB irradiated; treated/untreated (Cy5/Cy3)
# Protocol: as §1, §2, §3, §4
# TGFB2 = assay: Micro array gene expression analysis, TGFB2; details: keratinocytes, UVB irradiated; treated/untreated (Cy5/Cy3)
# Protocol: as §1, §2, §3, §4
# TNF-α = TNF-α release (ELISA) after UVB irradiation, EpiDerm/keratinocyte model; details: for TNF-α (pg/ml), Sample2 / TNF-α (pg/ml), sample1: TNF-α released into media after UVB ~30 mJ/cm^2; for TNF-α (pg/ml), Sample2: UVB + Vehicle 147; for TNF-α (pg/ml), sample1: UVB + Vehicle 257; for TNF-α Avg.: average of sample 1 and 2, UVB + Vehicle 202
# Protocol: as §1, §2
# At the end of the incubation period the culture media was removed via aspiration and replaced with phosphate buffered saline. The cells were then irradiated with ˜30 mJ/cm^2 of UVB radiation. Fresh culture media was then applied to the cells and the cells were incubated overnight at 37±2° C. and 5±1% CO2. After the incubation the cell culture media was collected to measure TNF-α release by a commercial ELISA Assay kit.
SMILES,PTGER3 Gene expression (%) (PTGER3),PTGER2 Gene expression (%) (PTGER2),PTGER1 Gene expression (%) (PTGER1),EFA6R Gene expression (%) (EFA6R),PTGIR Gene expression (%) (PTGIR),APOBEC1 Gene expression (%) (APOBEC1),TNFRSF6B Gene expression (%) (TNFRSF6B),TNFSF13 Gene expression (%) (TNFSF13),MAP3K2 Gene expression (%) (MAP3K2),CDCP1 Gene expression (%) (CDCP1),EPHB4 Gene expression (%) (EPHB4),TUCAN Gene expression (%) (TUCAN),ITGB6 Gene expression (%) (ITGB6),DEFA6 Gene expression (%) (DEFA6),JAK3 Gene expression (%) (JAK3),PTGFR Gene expression (%) (PTGFR),TGFB2 Gene expression (%) (TGFB2),"TNF-α (pg/ml), Sample2 (TNF-α) [pg/mL]","TNF-α (pg/ml), sample1 (TNF-α) [pg/mL]",TNF-α Avg. (TNF-α) [pg/mL]
Cc1cc(C(=O)Nc2ccc(Cl)cc2)no1 [UTL-5d],42.7,39.9,33.8,29.2,27.0,29.2,52.1,47.0,59.9,44.1,35.8,26.0,24.3,44.3,34.7% and 29.3%,24.5,38.2,67,61,64
Cc1cc(C(=O)O)no1 [UTR-1],40.8,58.0,28.6,37.5,39.4,33.3,68.0,42.5,59.2,65.6,43.3,33.3,30.0,38.0,38.6% and 41.7%,40.0,57.9,119,120,120
